Experimental data published in patent US20240408050A1, “DIHYDROMYRICETIN SPRAY-DRIED DISPERSION FORMULATIONS AND METHODS FOR FORMING THEM” (The Trustees of Princeton University, priority 2018, published 2024).
In brackets after ≈: the same amount, converted by molar mass. Read-outs that look alike come from different tables or passages of the source.

Assays:
[1] = Equilibrium solubility of crystalline DHM in simulated intestinal fluids (FeSSIF, FaSSIF); type: physicochemical; conditions: thermodynamic from solid
[2] = low solubility and permeability; cited from earlier work
[3] = reference [17]; cited from earlier work
[4] = In vitro release in FeSSIF with 1% v/v Tween 20 (Polysorbate 20), Example 2, FIG. 4; type: physicochemical; conditions: FeSSIF + 1% v/v Tween 20, 37° C.
Method: (§1) Release Kinetics in Vitro: Simulated gastric fluid (FaSSGF) and intestinal fluids (FaSSIF and FeSSIF) are prepared according to the manufacturer's instructions. Dissolution tests are performed with spray dried DHM-containing powders or tablets with the appropriate controls. Release under Gastric Conditions: DHM-containing spray dried powder samples are suspended in prewarmed FaSSGF (37° C.) to achieve a drug (DHM) concentration of roughly 10-100× the previously determined equilibrium solubility in the FaSSGF fluid (e.g., 75 μg/mL) by pipetting up and down vigorously multiple times. The samples are incubated for the duration of the study (e.g., 30 min) at 37° C. […] The samples are then diluted as appropriate to fall within the detection range and analyzed by high-performance liquid chromatography (HPLC), with the mobile phase as 80:20 H2O: acetonitrile (each with 0.05% trifluoroacetic acid), and with detection with UV-Vis at 290 nm. The concentration of DHM is then calculated based on a calibration curve. […] The samples are then diluted as appropriate to fall within the detection range and analyzed by HPLC, with the mobile phase as 80:20 H2O: acetonitrile (each with 0.05% trifluoroacetic acid), and with detection with UV-Vis at 290 nm. The concentration of DHM is then calculated based on a calibration curve. […]

[5] = In vitro release in fed state simulated intestinal fluid (FeSSIF), Example 1, FIG. 3; type: physicochemical; conditions: 37° C., loaded at 1400 μg/mL DHM, 360 minute timepoint
Method: as §1

solubility thermodynamic ([1]; Fasted State Simulated Intestinal Fluid (FaSSIF), pH 6.5, fassif, fasted state simulated intestinal fluid, pH 6.5, read-out: equilibrium solubility in FaSSIF): ~50 µg/mL (≈ 156 µM)
solubility thermodynamic ([1]; Fed State Simulated Intestinal Fluid (FeSSIF), pH 5, fessif, fed state simulated intestinal fluid, pH 5.0, read-out: equilibrium solubility in FeSSIF): ~140 µg/mL (≈ 437 µM)
effect of Tween 20 (Polysorbate 20) surfactant on solubility of DHM [4]: increased
Compound: O=C1c2c(O)cc(O)cc2O[C@H](c2cc(O)c(O)c(O)c2)[C@H]1O [DHM, dihydromyricetin]
BCS class [2]: BCS class IV
oral bioavailability [3]: less than 5%
dissolved DHM concentration at completion of the release study [5]: approximately reached its previously determined equilibrium concentration
